In patent publication US9200001B2, “Triazolyl PDE10 inhibitors” (Merck Sharp & Dohme Corp., priority 2011, dated 2015):

Target: human PDE10A2 (Homo sapiens (Human), UniProt Q9Y233)
Test: PDE10 fluorescence polarization (IMAP FP) inhibition assay
Format: biochemical
Details: FAM-labeled cAMP 50 nM, room temperature, read-out: PDE10a Ki
Procedure: The activity of the compounds in accordance with the present invention as PDE10 inhibitors may be readily determined without undue experimentation using a fluorescence polarization (FP) methodology that is well known in the art (Huang, W., et al., J. Biomol Screen, 2002, 7: 215).
In a typical experiment the PDE10 inhibitory activity of the compounds of the present invention was determined in accordance with the following experimental method. PDE10A2 was amplified from human fetal brain cDNA (Clontech, Mountain View, Calif.) using a forward primer corresponding to nucleotides 56-77 of human PDE10A2 (Accession No. AF127480, Genbank Identifier 4894716), containing a Kozak consensus sequence, and a reverse primer corresponding to nucleotides 2406-2413 of human PDE10A2 (Accession No. AF127480, Genbank Identifier 4894716). Amplification with Easy-A polymerase (Stratagene, La Jolla, Calif.) was 95° C. for 2 minutes followed by thirty three cycles of 95° C. for 40 seconds, 55° C. for 30 seconds, and 72° C. for 2 minutes 48 seconds. Final extension was 72° C. for 7 minutes. The PCR product was TA cloned into pcDNA3.2-TOPO (Invitrogen, Carlsbad, Calif.) according to standard protocol. AD293 cells with 70-80% confluency were transiently transfected with human PDE10A2/pcDNA3.2-TOPO using Lipofectamine 2000 according to manufacturer specifications (Invitrogen, Carlsbad, Calif.). Cells were harvested 48 hours post-transfection and lysed by sonication (setting 3, 10×5 sec pulses) in a buffer containing 20 mM HEPES, 1 mM EDTA and protease inhibitor cocktail (Roche). Lysate was collected by centrifugation at 75,000×g for 20 minutes. Supernatant containing the cytoplasmic fraction was used for evaluation of PDE10A2 activity. The fluorescence polarization assay for cyclic nucleotide phosphodiesterases was performed using an IMAP® FP kit supplied by Molecular Devices, Sunnyvale, Calif. (product # R8139). IMAP® technology has been applied previously to phosphodiesterase assays (Huang, W., et al., J. Biomol Screen, 2002, 7: 215). Assays were performed at room temperature in 384-well microtiter plates with an incubation volume of 20.2 μL. Solutions of test compounds were prepared in DMSO and serially diluted with DMSO to yield 8 μL of each of 10 solutions differing by 3-fold in concentration, at 32 serial dilutions per plate. 100% inhibition is determined using a known PDE10 inhibitor, which can be any compound that is present at 5,000 times its Ki value in the assay described as follows, such as papaverine (see Siuciak, et al. Neuropharmacology (2006) 51:386-396; Becker, et al. Behav Brain Res (2008) 186(2):155-60; Threlfell, et al., J Pharmacol Exp Ther (2009) 328(3):785-795), 2-{4-[pyridin-4-yl-1-(2,2,2-trifluoroethyl)-1H-pyrazol-3-yl]phenoxymethyl}quinoline succinic acid or 2-[4-(1-methyl-4-pyridin-4-yl-1H-pyrazol-3-yl)-phenoxymethyl]quinoline succinic acid (see Schmidt, et al. J Pharmacol Exp Ther (2008) 325:681-690; Threlfall, et al., J Pharmacol Exp Ther (2009) 328(3): 785-795). 0% of inhibition is determined by using DMSO (1% final concentrations).
A Labcyte Echo 555 (Labcyte, Sunnyvale, Calif.) is used to dispense 200 nL from each well of the titration plate to the 384 well assay plate. A solution of enzyme (1/1600 dilution from aliquots; sufficient to produce 20% substrate conversion) and a separate solution of FAM-labeled cAMP PDE from Molecular Devices (product # R7506), at a final concentration of 50 nM are made in the assay buffer (10 mM Tris HCl, pH 7.2, 10 mM MgCl2, 0.05% NaN3 0.01% Tween-20, and 1 mM DTT). The enzyme and the substrate are then added to the assay plates in two consecutive additions of 10 μL, and then shaken to mix. The reaction is allowed to proceed at room temperature for 30 minutes. A binding solution is then made from the kit components, comprised of 80% Solution A, 20% Solution B and binding reagent at a volume of 1600 the total binding solution. […]

human PDE10A2, sequence (Q9Y233 267-1055): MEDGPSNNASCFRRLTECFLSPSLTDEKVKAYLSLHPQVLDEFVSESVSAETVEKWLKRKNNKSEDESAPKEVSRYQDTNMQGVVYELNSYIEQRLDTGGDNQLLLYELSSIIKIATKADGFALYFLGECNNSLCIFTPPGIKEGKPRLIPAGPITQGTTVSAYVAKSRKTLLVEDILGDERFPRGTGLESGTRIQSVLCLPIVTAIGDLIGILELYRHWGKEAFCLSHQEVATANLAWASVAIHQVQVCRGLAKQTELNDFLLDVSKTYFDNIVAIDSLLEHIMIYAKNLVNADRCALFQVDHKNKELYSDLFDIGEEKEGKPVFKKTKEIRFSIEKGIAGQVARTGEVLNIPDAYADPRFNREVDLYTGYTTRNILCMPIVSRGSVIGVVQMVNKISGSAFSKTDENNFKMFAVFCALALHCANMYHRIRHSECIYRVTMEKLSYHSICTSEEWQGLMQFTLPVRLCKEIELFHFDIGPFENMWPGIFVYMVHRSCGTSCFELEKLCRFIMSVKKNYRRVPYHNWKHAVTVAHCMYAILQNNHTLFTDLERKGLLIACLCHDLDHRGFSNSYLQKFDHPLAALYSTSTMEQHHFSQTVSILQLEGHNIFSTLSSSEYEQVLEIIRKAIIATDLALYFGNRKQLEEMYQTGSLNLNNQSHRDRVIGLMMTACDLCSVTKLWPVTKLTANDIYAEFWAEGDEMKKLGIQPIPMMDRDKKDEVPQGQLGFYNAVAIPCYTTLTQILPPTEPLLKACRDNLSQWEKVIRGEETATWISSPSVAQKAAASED

Row | Ki | Structure (SMILES)
1 | 0.073 nM | COc1ccc(Cc2nc(C)nn2-c2cc(C#Cc3ccc4ccccc4n3)nc(C)n2)nc1OC [Cpd 7, 2-((6-(5-((5,6-dimethoxypyridin-2-yl)methyl)-3-methyl-1H-1,2,4-triazol-1-yl)-2-methylpyrimidin-4-yl)ethynyl)quinoline]
2 | 0.58 nM | Cc1nc(C)n(-c2cc([C@@H]3C[C@H]3c3nc4ccccc4n3C)nc(N3CC[C@@H](F)C3)n2)n1 [Cpd 134, 2-((1R,2R)-2-(6-(3,5-dimethyl-1H-1,2,4-triazol-1-yl)-2-((R)-3-fluoropyrrolidin-1-yl)pyrimidin-4-yl)cyclopropyl)-1-methyl-1H-benzo[d]imidazole]
3 | > 75 nM | Cc1nc([C@H]2C[C@@H]2c2nc3ccccc3n2C)cc(-n2nc(C)nc2-c2ccccn2)n1 (stereo in doubt) [Cpd 82, 1-methyl-2-{2-[2-methyl-6-(3-methyl-5-pyridin-2-yl-1H-1,2,4-triazol-1-yl)pyrimidin-4-yl]cyclopropyl}-1H-benzimidazole]
4 | 3.9 nM | Cc1nc([C@@H]2C[C@H]2c2nc3ccccc3n2C)cc(-n2nc(C)nc2C2CCN(C)CC2)n1 [Cpd 96, 1-methyl-2-[(1R,2R)-2-{2-methyl-6-[3-methyl-5-(1-methylpiperidin-4-yl)-1H-1,2,4-triazol-1-yl]pyrimidin-4-yl}cyclopropyl]-1H-benzimidazole]
5 | 0.14 nM | COc1ccc(Cc2nc(C)nn2-c2cc(CCc3ccc(C)cn3)nc(C)n2)cc1OC [Cpd 5, 4-(5-(3,4-dimethoxybenzyl)-3-methyl-1H-1,2,4-triazol-1-yl)-2-methyl-6-(2-(5-methylpyridin-2-yl)ethyl)pyrimidine]
6 | 1.5 nM | Cc1nc(C)n(-c2cc([C@H]3C[C@@H]3c3nc4ccccc4n3C)nc(OCC(F)(F)F)n2)n1 (relative stereo) [Cpd 124, trans-2-{2-[6-(3,5-dimethyl-1H-1,2,4-triazol-1-yl)-2-(2,2,2-trifluoroethoxy)pyrimidin-4-yl]cyclopropyl}-1-methyl-1H-benzimidazole]
7 | 0.005 nM | COc1ccc(Cc2nc(C)nn2-c2cc([C@@H]3C[C@H]3c3nc4ccccc4[nH]3)nc(C)n2)cc1OC [Cpd 26, 2-((1R,2R)-2-(6-(5-(3,4-dimethoxybenzyl)-3-methyl-1H-1,2,4-triazol-1-yl)-2-methylpyrimidin-4-yl)cyclopropyl)-1H-benzo[d]imidazole]
8 | 0.88 nM | Cc1nc(C)n(-c2cc([C@@H]3C[C@H]3c3nc4ccccc4n3C)nc(C(C)(C)O)n2)n1 [Cpd 131, 2-(4-(3,5-dimethyl-1H-1,2,4-triazol-1-yl)-6-((1R,2R)-2-(1-methyl-1H-benzo[d]imidazol-2-yl)cyclopropyl)pyrimidin-2-yl)propan-2-ol]
9 | 1.7 nM | Cc1nc(C2CC2c2nc3ccccc3n2C)cc(-n2nc(C)nc2C(C)C)n1 (centres unmarked) [Cpd 56, 2-(2-(6-(5-isopropyl-3-methyl-1H-1,2,4-triazol-1-yl)-2-methylpyrimidin-4-yl)cyclopropyl)-1-methyl-1H-benzo[d]imidazole]
10 | 9.2 nM | Cc1nc([C@@H]2C[C@H]2c2nc3ccc(F)cc3[nH]2)cc(-n2nc(C)nc2C)n1 [Cpd 68, 2-{(1R,2R)-2-[6-(3,5-dimethyl-1H-1,2,4-triazol-1-yl)-2-methylpyrimidin-4-yl]cyclopropyl}-6-fluoro-1H-benzimidazole]
11 | 0.002 nM | COc1ccc(Cc2nc(C)nn2-c2cc(/C=C/c3ccccn3)nc(C)n2)cc1OC [Cpd 19, (E)-4-(5-(3,4-dimethoxybenzyl)-3-methyl-1H-1,2,4-triazol-1-yl)-2-methyl-6-(2-(pyridin-2-yl)vinyl)pyrimidine]
12 | 0.005 nM | COc1ccc(Cc2nc(C)nn2-c2cc(C3CC3c3nc4ccccc4[nH]3)nc(C)n2)cc1OC (centres unmarked) [Cpd 38, 2-(2-(6-(5-(3,4-dimethoxybenzyl)-3-methyl-1H-1,2,4-triazol-1-yl)-2-methylpyrimidin-4-yl)cyclopropyl)-1H-benzo[d]imidazole]
13 | 25.1 nM | Cc1nc(C2CC2c2nc3cc(F)c(F)cc3[nH]2)cc(-n2nc(C)nc2C)n1 (centres unmarked) [Cpd 54, 2-(2-(6-(3,5-dimethyl-1H-1,2,4-triazol-1-yl)-2-methylpyrimidin-4-yl)cyclopropyl)-5,6-difluoro-1H-benzo[d]imidazole]
14 | 38.8 nM | Cc1nc(C2CC2c2nc3ccccc3n2-c2ccccc2)cc(-n2nc(C)nc2C)n1 (centres unmarked) [Cpd 51, 2-(2-(6-(3,5-dimethyl-1H-1,2,4-triazol-1-yl)-2-methylpyrimidin-4-yl)cyclopropyl)-1-phenyl-1H-benzo[d]imidazole]
15 | 0.5 nM | COc1ccc(Cc2nc(C)nn2-c2cc(C3CC3c3cc4n(n3)CCC4)nc(C)n2)cc1OC (centres unmarked) [Cpd 42, 2-(2-(6-(5-(3,4-dimethoxybenzyl)-3-methyl-1H-1,2,4-triazol-1-yl)-2-methylpyrimidin-4-yl)cyclopropyl)-5,6-dihydro-4H-pyrrolo[1,2-b]pyrazole]
16 | 9.8 nM | COc1ccc(Cc2nc(C)nn2-c2cc(C3CC3c3nnc(C)s3)nc(C)n2)cc1OC (centres unmarked) [Cpd 29, 2-(2-(6-(5-(3,4-dimethoxybenzyl)-3-methyl-1H-1,2,4-triazol-1-yl)-2-methylpyrimidin-4-yl)cyclopropyl)-5-methyl-1,3,4-thiadiazole]
17 | 3.5 nM | Cc1nc(C2CC2c2nc3ccccc3n2C)cc(-n2nc(C)nc2C)n1 (centres unmarked) [Cpd 36, 2-(2-(6-(3,5-dimethyl-1H-1,2,4-triazol-1-yl)-2-methylpyrimidin-4-yl)cyclopropyl)-1-methyl-1H-benzo[d]imidazole]
18 | 0.39 nM | COc1ccc(C2CC2c2cc(-n3nc(C)nc3Cc3ccc(OC)c(OC)c3)nc(C)n2)nc1 (centres unmarked) [Cpd 43, 4-(5-(3,4-dimethoxybenzyl)-3-methyl-1H-1,2,4-triazol-1-yl)-6-(2-(5-methoxypyridin-2-yl)cyclopropyl)-2-methylpyrimidine]
19 | 0.003 nM | COc1ccc(Cc2nc(C)nn2-c2cc(C3CC3c3nc4ccccc4n3C)nc(C)n2)cc1OC (centres unmarked) [Cpd 28, 2-(2-(6-(5-(3,4-dimethoxybenzyl)-3-methyl-1H-1,2,4-triazol-1-yl)-2-methylpyrimidin-4-yl)cyclopropyl)-1-methyl-1H-benzo[d]imidazole]
20 | 88 nM | COc1ccc(Cc2nc(C)nn2-c2cc(C3CC3c3nnc(C)o3)nc(C)n2)cc1OC (centres unmarked) [Cpd 27, 2-(2-(6-(5-(3,4-dimethoxybenzyl)-3-methyl-1H-1,2,4-triazol-1-yl)-2-methylpyrimidin-4-yl)cyclopropyl)-5-methyl-1,3,4-oxadiazole]
21 | 0.82 nM | COc1ccc(Cc2nc(C)nn2-c2cc(C#Cc3ccc4ncccc4n3)nc(C)n2)cc1OC [Cpd 14, 2-((6-(5-(3,4-dimethoxybenzyl)-3-methyl-1H-1,2,4-triazol-1-yl)-2-methylpyrimidin-4-yl)ethynyl)-1,5-naphthyridine]
22 | 43 nM | Cc1nc([C@H]2C[C@@H]2c2nc3ccccc3s2)cc(-n2nc(C)nc2C)n1 (relative stereo) [Cpd 129, trans-2-{2-[6-(3,5-dimethyl-1H-1,2,4-triazol-1-yl)-2-methylpyrimidin-4-yl]cyclopropyl}-1,3-benzothiazole]
23 | 0.21 nM | COc1ccc(Cc2nc(C)nn2-c2cc(C3CC3c3ccc(C)cn3)nc(C)n2)cc1OC (centres unmarked) [Cpd 35, 4-(5-(3,4-dimethoxybenzyl)-3-methyl-1H-1,2,4-triazol-1-yl)-2-methyl-6-(2-(5-methylpyridin-2-yl)cyclopropyl)pyrimidine]
